Assay results as given in patent US8802711B2, “TRPV1 antagonists” (AbbVie Inc., priority 2011, dated 2014).

What was measured:
[1] = molecular target: T1, human TRPV1 receptor (hTRPV1) (Homo sapiens (Human), UniProt Q8NER1); experiment: Capsaicin activation assay (FLIPR intracellular Ca2+); assay type: cell-based; settings: Table 1; inhibition of capsaicin-induced intracellular Ca2+ increase, HEK293 cells expressing human TRPV1; read-out: hTRPV1 cap IC50
Experimental: Dulbecco's modified Eagle medium (D-MEM) (with 4.5 mg/mL glucose) and fetal bovine serum were obtained from Hyclone Laboratories, Inc. (Logan, Utah). Dulbecco's phosphate-buffered saline (D-PBS) (with 1 mg/mL glucose and 3.6 mg/l Na pyruvate, without phenol red), L-glutamine, hygromycin B, and Lipofectamine® were obtained from Life Technologies (Grand Island, N.Y.). G418 sulfate was obtained from Calbiochem-Novabiochem Corp. (San Diego, Calif.). Capsaicin (8-methyl-N-vanillyl-6-nonenamide) was obtained from Sigma-Aldrich, Co. (St. Louis, Mo.). Fluo-4 AM (N-[4-[6-[(acetyloxy)methoxy]-2,7-difluoro-3-oxo-3H-xanthen-9-yl]-2-[2-[2-[bis[2-[(acetyloxy)methoxy]-2-oxyethyl]amino]-5-methyl phenoxy]ethoxy]phenyl]-N-[2-[(acetyloxy)methoxy]-2-oxyethyl]-glycine, (acetyloxy)methyl ester) was purchased from Molecular Probes (Eugene, Oreg.). […]
The functional activity of compounds at the TRPV1 receptor was determined by measurement of intracellular Ca^2+ levels ([Ca^2+]i) using the Fluorescence Imaging Plate Reader (FLIPR)^TETRA®. All compounds were tested over a 12-point one-third-log concentration range. Compound stocks, 10 mM, were prepared in DMSO, and diluted serially across a 384-well plate using a Bravo BenchCel workstation (Agilent Technologies, Santa Clara, Calif.). A stock concentration of capsaicin (10 mM) was made in DMSO, and diluted in D-PBS to a final concentration of 200 nM (4×). On the day prior to the experiment, recombinant HEK293 cells that stably express human TRPV1 were removed from tissue culture flasks and plated in growth medium into black-walled clear-bottom 384-well Biocoat™ poly-D-lysine assay plates (BD Biosciences, Bedford, Mass.) using a Multidrop® dispenser (ThermoScientific, Waltham, Mass.). On the day of the experiment, growth medium was removed, and the no-wash FLIPR® Calcium-4 dye (λEX=470-495 nm, λEM=515-575 nm; Molecular Devices, Sunnyvale, Calif.) was added to each well using the Multidrop® dispenser. Cells were incubated for 90-120 minutes in the dark at room temperature. Test compounds were added to the cells 3 minutes prior to the addition of 200 nM capsaicin (4×), and the final assay volume was 80 μL. Fluorescence readings were made at 1 to 5 second intervals over the course of the experimental run. The peak increase in relative fluorescence units (minus baseline) was calculated, and expressed as a percentage of the 50 nM capsaicin (control) response.

[2] = molecular target: T1, human TRPV1 receptor (hTRPV1); experiment: Acid activation assay (pH 5.0, FLIPR intracellular Ca2+); assay type: cell-based; settings: Table 1, 37.5 μM antagonist, percentage of the maximal pH 5.0-induced response remaining; for remaining activity at 37.5 µM: read-out: hTRPV1 H+ (max % remain)
Experimental: Dulbecco's modified Eagle's medium (DMEM) with 4.5 mg/mL D-glucose, fetal bovine serum, L-glutamine, and 2-morpholinoethanesulfonic acid (MES) were purchased from Sigma-Aldrich Co. (St. Louis, Mo.). Dulbecco's phosphate-buffered saline (DPBS) with Ca^2+, Mg^2+, and 1 mg/mL D-glucose (pH 7.4), Geneticin®, 0.25% trypsin-1 mM EDTA, and penicillin-streptomycin were purchased from Invitrogen Corp. (Carlsbad, Calif.). The FLIPR® Calcium 4 assay kit was purchased from Molecular Devices (Sunnyvale, Calif.).
The cDNAs for the human TRPV1 receptor (hTRPV1) were isolated by reverse transcriptase-polymerase chain reaction (RT-PCR) from human small intestine poly A+RNA supplied by Clontech (Palo Alto, Calif.) using primers designed surrounding the initiation and termination codons identical to the published sequences (Hayes et al. Pain 2000, 88, 205-215). The resulting cDNA PCR products were subcloned into pCIneo mammalian expression vector (Promega) and fully sequenced using fluorescent dye-terminator reagents (Prism, Perkin-Elmer Applied Biosystems Division) and a Perkin-Elmer Applied Biosystems Model 373 DNA sequencer or Model 310 genetic analyzer. Expression plasmids encoding the hTRPV1 cDNA were transfected individually into 1321N1 human astrocytoma cells using Lipofectamine. Forty-eight hours after transfection, the neomycin-resistant cells were selected with growth medium containing 800 μg/mL Geneticin (Gibco BRL). Surviving individual colonies were isolated and screened for TRPV1 receptor activity. Cells expressing recombinant homomeric TRPV1 receptors were maintained at 37° C. in DMEM containing 4 mM L-glutamine, 300 μg/mL G418 (Cal-biochem) and 10% fetal bovine serum under a humidified 5% CO2 atmosphere.
The functional activity of compounds at the TRPV1 receptor was determined by measurement of intracellular Ca^2+ levels ([Ca^2+]i) using the Fluorescence Imaging Plate Reader (FLIPR)^TETRA®. All compounds were tested over a 12-point one-half-log concentration range. Compound stocks, 10 mM, were prepared in DMSO, and diluted serially across a 384-well plate using a Bravo BenchCel workstation (Agilent Technologies, Santa Clara, Calif.).
On the day of the experiment growth medium was removed, and the no-wash FLIPR® Calcium-4 dye (λEX=470-495 nm, λEM=515-575 nm) was added to each well using the Multidrop® dispenser. Cells were incubated for 90-120 minutes in the dark at 25° C. Test compounds were dissolved in DMSO, and plates were prepared using an Agilent Bravo workstation (Agilent Technologies Inc., Santa Clara, Calif.). Compounds were added to the cells 3 minutes prior to the addition of a pH 5.0 solution. Reagents were delivered at a rate of 40 μL/sec, and the final assay volume was 80 μL. Acidic pH solutions were prepared by titration of DPBS/MES with 1 N HCl. The intensity of the fluorescence was captured and digitally transferred to an interfaced PC.

T1 sequence (Q8NER1 whole entry): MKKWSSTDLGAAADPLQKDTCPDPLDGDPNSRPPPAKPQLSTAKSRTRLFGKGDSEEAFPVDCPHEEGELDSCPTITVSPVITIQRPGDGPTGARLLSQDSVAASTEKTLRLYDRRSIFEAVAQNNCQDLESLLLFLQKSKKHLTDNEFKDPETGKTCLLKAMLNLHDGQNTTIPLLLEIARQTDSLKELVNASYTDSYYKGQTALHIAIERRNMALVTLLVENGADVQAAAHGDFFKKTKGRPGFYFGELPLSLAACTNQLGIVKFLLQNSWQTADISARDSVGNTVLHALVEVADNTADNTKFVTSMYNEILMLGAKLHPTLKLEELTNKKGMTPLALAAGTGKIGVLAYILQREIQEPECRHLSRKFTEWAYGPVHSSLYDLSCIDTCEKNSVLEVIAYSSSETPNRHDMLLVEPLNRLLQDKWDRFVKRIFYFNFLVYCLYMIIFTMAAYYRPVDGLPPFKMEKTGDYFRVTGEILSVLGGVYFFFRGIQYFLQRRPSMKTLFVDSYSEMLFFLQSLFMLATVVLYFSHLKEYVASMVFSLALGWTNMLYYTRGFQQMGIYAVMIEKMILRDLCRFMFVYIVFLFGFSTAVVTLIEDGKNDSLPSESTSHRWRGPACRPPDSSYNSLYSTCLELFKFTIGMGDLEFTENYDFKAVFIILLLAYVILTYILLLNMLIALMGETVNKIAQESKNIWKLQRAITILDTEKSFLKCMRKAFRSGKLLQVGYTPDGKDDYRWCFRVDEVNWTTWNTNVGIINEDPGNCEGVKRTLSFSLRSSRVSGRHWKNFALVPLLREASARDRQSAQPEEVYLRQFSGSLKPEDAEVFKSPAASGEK

| Compound | IC50 [1] [µM] | remaining activity at 37.5 µM [2] [%] | hTRPV1 H+ (max % remain) [2] [%] |
| --- | --- | --- | --- |
| O=C(Nc1cccc2c1C[C@@H](O)CC2)N[C@@H]1CC[C@@H](c2ccccc2)C1 [Compound F, 1-[(7S)-7-hydroxy-5,6,7,8-tetrahydronaphthalen-1-yl]-3-[(1R,3R)-3-phenylcyclopentyl]urea, reference compound] | 0.005 | 6 |  |
| CC(C)(C)c1ccc(C2CCC(NC(=O)Nc3cccc4[nH]ncc34)C2)cc1 (centres unmarked) [Example 37, 1-[3-(4-tert-butylphenyl)cyclopentyl]-3-(1H-indazol-4-yl)urea] | 0.427 | 6 |  |
| C[C@@]1(c2ccccc2)CC[C@@H](NC(=O)Nc2cccc3[nH]ncc23)C1 [Example 73, 1-(1H-indazol-4-yl)-3-[(1R,3R)-3-methyl-3-phenylcyclopentyl]urea] | 0.164 | 11 |  |
| O=C(Nc1cccc2c1C[C@@H](O)C2)N[C@H]1CC[C@@H](c2ccccc2)C1 [Example 23, 1-[(2S)-2-hydroxy-2,3-dihydro-1H-inden-4-yl]-3-[(1S,3R)-3-phenylcyclopentyl]urea] | 0.138 | 88 |  |
| CC(C)(C)c1ccc(C2CCCC(NC(=O)Nc3cccc4[nH]ncc34)C2)cc1 (centres unmarked) [Example 29, 1-[3-(4-tert-butylphenyl)cyclohexyl]-3-(1H-indazol-4-yl)urea] | 1.73 | 68 |  |
| O=C(Nc1cccc2[nH]ncc12)N[C@@H]1CC[C@H](c2cccc(F)c2)C1 [Example 65, 1-[(1R,3S)-3-(3-fluorophenyl)cyclopentyl]-3-(1H-indazol-4-yl)urea] | 0.008 | 12 |  |
| Cn1c(=O)ccc2c(NC(=O)N[C@@H]3CC[C@@H](c4ccccc4F)C3)cccc21 [Example 81, 1-[(1R,3R)-3-(2-fluorophenyl)cyclopentyl]-3-(1-methyl-2-oxo-1,2-dihydroquinolin-5-yl)urea] | 0.0023 | 66 |  |
| O=C(Nc1cccc2[nH]ncc12)N[C@@H]1C[C@H](c2ccccc2)[C@@H]2[C@H]1C2(F)F [Example 54, 1-((1R,2R,4S,5R)-6,6-difluoro-4-phenylbicyclo[3.1.0]hex-2-yl)-3-(1H-indazol-4-yl)urea] | 1.34 | 69 |  |
| Cn1ncc2c(NC(=O)N[C@@H]3CC[C@@H](c4ccccc4F)C3)cccc21 [Example 103, 1-[(1R,3R)-3-(2-fluorophenyl)cyclopentyl]-3-(1-methyl-1H-indazol-4-yl)urea] | 0.014 | 19 |  |
| O=C(Nc1cccc2[nH]ncc12)N[C@H]1CC[C@@](O)(c2ccccc2)C1 (relative stereo) [Example 58, 1-[(trans)-3-hydroxy-3-phenylcyclopentyl]-3-(1H-indazol-4-yl)urea] | 8.64 |  | 53 |
| O=C(Nc1cccc2[nH]ncc12)NC1CC[C@H](c2ccc(F)cc2)C1 (stereo partly drawn) [Example 45, 1-[(3S)-3-(4-fluorophenyl)cyclopentyl]-3-(1H-indazol-4-yl)urea] | 0.026 | 9 |  |
| O=C(Nc1cccc2c1CCC2)N[C@H]1CC[C@H](c2ccccc2)C1 [Example 112, 1-(2,3-dihydro-1H-inden-4-yl)-3-[(1S,3S)-3-phenylcyclopentyl]urea] | 1.37 | 35 |  |
| CN1C(=O)CCc2ccc(NC(=O)N[C@@H]3CC[C@@H](c4cccc(F)c4)C3)cc21 [Example 107, 1-[(1R,3R)-3-(3-fluorophenyl)cyclopentyl]-3-(1-methyl-2-oxo-1,2,3,4-tetrahydroquinolin-7-yl)urea] | > 37.5 | 77 |  |
| O=C(Nc1cccc2c1C[C@H](O)C2)N[C@@H]1CC[C@H](c2ccccc2)C1 [Example 1, 1-[(2R)-2-hydroxy-2,3-dihydro-1H-inden-4-yl]-3-[(1R,3S)-3-phenylcyclopentyl]urea] | 0.106 | 93 |  |
| Cc1cc2c(NC(=O)N[C@@H]3CC[C@@H](c4ccccc4F)C3)c(F)ccc2cn1 [Example 82, 1-(6-fluoro-3-methylisoquinolin-5-yl)-3-[(1R,3R)-3-(2-fluorophenyl)cyclopentyl]urea] | 0.0033 | 12 |  |
| CSc1ccc([C@H]2CCC(NC(=O)Nc3cccc4[nH]ncc34)C2)cc1 (stereo partly drawn) [Example 46, 1-(1H-indazol-4-yl)-3-{(3S)-3-[4-(methylsulfanyl)phenyl]cyclopentyl}urea] | 0.087 | 7 |  |
| O=C(Nc1cccc2c1C[C@@H](O)CC2)N[C@H]1CC[C@H](c2ccccc2)C1 [Compound D, 1-[(7S)-7-hydroxy-5,6,7,8-tetrahydronaphthalen-1-yl]-3-[(1S,3S)-3-phenylcyclopentyl]urea, reference compound] | 0.013 | 2 |  |
| O=C(Nc1cccc2[nH]ncc12)N[C@H]1C=C[C@@H](c2ccccc2)C1 [Example 63, 1-(1H-indazol-4-yl)-3-[(1R,4S)-4-phenylcyclopent-2-en-1-yl]urea] | 0.122 | 38 |  |
| Cn1ncc2c(NC(=O)N[C@H]3CC[C@@H](c4ccccc4)C3)cccc21 [Example 25, 1-(1-methyl-1H-indazol-4-yl)-3-[(1S,3R)-3-phenylcyclopentyl]urea] | 0.628 | 46 |  |
| Cc1cc2c(NC(=O)N[C@H]3CC[C@@H](c4cccc(F)c4)C3)c(F)ccc2cn1 [Example 85, 1-(6-fluoro-3-methylisoquinolin-5-yl)-3-[(1S,3R)-3-(3-fluorophenyl)cyclopentyl]urea] | 0.0089 | 21 |  |
| CN1CCOc2ccc(NC(=O)N[C@@H]3CC[C@H](c4ccccc4)C3)cc21 [Example 145, 1-(4-methyl-3,4-dihydro-2H-1,4-benzoxazin-6-yl)-3-[(1R,3S)-3-phenylcyclopentyl]urea] | 0.614 | 91 |  |
| Cc1cc2c(NC(=O)N[C@H]3CC[C@@H](c4nc(C)cs4)C3)c(F)ccc2cn1 [Example 135, 1-(6-fluoro-3-methylisoquinolin-5-yl)-3-[(1S,3R)-3-(4-methyl-1,3-thiazol-2-yl)cyclopentyl]urea] | 1.79 | 57 |  |
